Measurements published in patent US20060084695A1, “Compositions and treatments for inhibiting kinase and/or HMG-CoA reductase” (priority 2004, published 2006).

System: oxazolone-induced mouse ear swelling
Assay: Inhibition of oxazolone-induced mouse ear swelling (topical inflammation model)
Assay type: in vivo, BALB/c male mice
Settings: observations made from Table II
Experimental: Left ears were untreated. The thickness of both ears of each animal was measured with a Dyer model micrometer gauge 24 hours after oxazolone challenge, and the net increase in thickness of right ears versus left ears was calculated for each animal. Percent inhibition was calculated according to the formula: [(Iv−It)/Iv]×100, where Iv and It respectively refer to the average net increase in right ear thickness (mm) for vehicle and candidate compound treated mice.

CC(C)c1c(C(=O)Nc2ccccc2)c(-c2ccccc2)c(-c2ccc(F)cc2)n1CC[C@@H]1C[C@@H](O)CC(=O)O1 [Atorvastatin lactone, atorvastatin lactone]
anti-inflammatory activity in ear swelling assay, comparison in words: most potent anti-inflammatory activity
